Active and inactive are the calls of the source. No rule for the calls is given here.
Test system: CCRIS mutagenicity, Ames/micronucleus/aberration tests
Test: CCRIS mutagenicity studies
[1] = Test System: AMES SALMONELLA TYPHIMURIUM, Strain/Indicator: TA98, Metabolic Activation: HAMSTER, LIVER, S-9, AROCLOR 1254, Method: STANDARD PLATE
[2] = Test System: AMES SALMONELLA TYPHIMURIUM, Strain/Indicator: TA98, Metabolic Activation: HAMSTER, LIVER, S-9, Method: PREINCUBATION (PRIVAL METHOD)
[3] = Test System: AMES SALMONELLA TYPHIMURIUM, Strain/Indicator: TA98, Metabolic Activation: NONE, Method: STANDARD PLATE
[4] = Test System: AMES SALMONELLA TYPHIMURIUM, Strain/Indicator: TA98, Metabolic Activation: RAT, LIVER, S-9, AROCLOR 1254, Method: STANDARD PLATE
[5] = Test System: AMES SALMONELLA TYPHIMURIUM, Strain/Indicator: TA100, Metabolic Activation: HAMSTER, LIVER, S-9, AROCLOR 1254, Method: STANDARD PLATE
[6] = Test System: AMES SALMONELLA TYPHIMURIUM, Strain/Indicator: TA100, Metabolic Activation: NONE, Method: STANDARD PLATE
[7] = Test System: AMES SALMONELLA TYPHIMURIUM, Strain/Indicator: TA100, Metabolic Activation: RAT, LIVER, S-9, AROCLOR 1254, Method: STANDARD PLATE
[8] = Test System: AMES SALMONELLA TYPHIMURIUM, Strain/Indicator: TA1537, Metabolic Activation: NONE, Method: STANDARD PLATE
[9] = Test System: AMES SALMONELLA TYPHIMURIUM, Strain/Indicator: TA1538, Metabolic Activation: HAMSTER, LIVER, S-9, AROCLOR 1254, Method: STANDARD PLATE
[10] = Test System: AMES SALMONELLA TYPHIMURIUM, Strain/Indicator: TA1538, Metabolic Activation: NONE, Method: STANDARD PLATE
[11] = Test System: AMES SALMONELLA TYPHIMURIUM, Strain/Indicator: TA1538, Metabolic Activation: RAT, LIVER, S-9, AROCLOR 1254, Method: STANDARD PLATE
[12] = Test System: Ames Salmonella typhimurium, Strain/Indicator: TA98, Metabolic Activation: None, Method: Preincubation
[13] = Test System: Ames Salmonella typhimurium, Strain/Indicator: TA100, Metabolic Activation: None, Method: Preincubation
[14] = Test System: Ames Salmonella typhimurium, Strain/Indicator: TA1535, Metabolic Activation: None, Method: Preincubation
[15] = Test System: MOUSE LYMPHOMA, Strain/Indicator: L5178Y (TK+/TK-), Metabolic Activation: NONE, Method: SUSPENSION/PLATE
[16] = Test System: MOUSE LYMPHOMA, Strain/Indicator: L5178Y (TK+/TK-), Metabolic Activation: RAT, LIVER, S-9, AROCLOR 1254, Method: SUSPENSION/PLATE

SMILES: CCN(CC[N+](C)(C)C)c1ccc(N=Nc2ccc([N+](=O)[O-])cc2Cl)cc1
- mutagenic call [1]: active; positive
- mutagenic call [2]: active; positive
- mutagenic call [3]: active; positive
- mutagenic call [4]: active; positive
- mutagenic call [5]: active; positive
- mutagenic call [6]: active; positive
- mutagenic call [7]: active; positive
- mutagenic call [8]: active; positive
- mutagenic call [9]: active; positive
- mutagenic call [10]: active; positive
- mutagenic call [11]: active; positive
- mutagenic call [12]: active; positive
- mutagenic call [13]: inactive; negative
- mutagenic call (Test System: Ames Salmonella typhimurium, Strain/Indicator: TA102, Metabolic Activation: None, Method: Preincubation): inactive; negative
- mutagenic call [14]: inactive; negative
- mutagenic call [15]: inactive; negative. reevaluation of results: negative
- mutagenic call [16]: active; positive. reevaluation of results: positive

SMILES: N=C1C=CC2=CC(S(=O)(=O)O)=CC(=O)C2=C1NNc1ccc(-c2ccc(N=Nc3cc(S(=O)(=O)O)c4ccccc4c3N)cc2)cc1
- mutagenic call [2]: active; positive

SMILES: O=C(O)CCCl
- mutagenic call [12]: inactive; negative
- mutagenic call (Test System: Ames Salmonella typhimurium, Strain/Indicator: TA98, Metabolic Activation: Rat, Liver, S9, Sodium phenobarbital and 5,6-benzoflavone (10%), Method: Preincubation): inactive; negative
- mutagenic call [13]: active; positive
- mutagenic call (Test System: Ames Salmonella typhimurium, Strain/Indicator: TA100, Metabolic Activation: Rat, Liver, S9, Sodium phenobarbital and 5,6-benzoflavone (10%), Method: Preincubation): active; positive
- mutagenic call [14]: active; positive
- mutagenic call (Test System: Ames Salmonella typhimurium, Strain/Indicator: TA1535, Metabolic Activation: Rat, Liver, S9, Sodium phenobarbital and 5,6-benzoflavone (10%), Method: Preincubation): active; positive
- mutagenic call (Test System: Ames Salmonella typhimurium, Strain/Indicator: TA1537, Metabolic Activation: Rat, Liver, S9, Sodium phenobarbital and 5,6-benzoflavone (10%), Method: Preincubation): inactive; negative
- mutagenic call (Test System: E. coli, Strain/Indicator: WP2uvrA/pKM101, Metabolic Activation: None, Method: Preincubation): active; positive
- mutagenic call (Test System: E. coli, Strain/Indicator: WP2uvrA/pKM101, Metabolic Activation: Rat, Liver, S9, Sodium phenobarbital and 5,6-benzoflavone (10%), Method: Preincubation): active; positive

SMILES: O=C1CCc2c1ccc1c2ccc2ccccc21
- mutagenic call (Test System: AMES SALMONELLA TYPHIMURIUM, Strain/Indicator: TA100, Metabolic Activation: RAT, LIVER, MICROSOMES, AROCLOR 1254, Method: STANDARD PLATE): active; positive
- mutagenic call (Test System: AMES SALMONELLA TYPHIMURIUM, Strain/Indicator: TA100, Metabolic Activation: RAT, LIVER, MICROSOMES, BENZO[A]PYRENE, Method: STANDARD PLATE): inactive; negative
- mutagenic call (Test System: AMES SALMONELLA TYPHIMURIUM, Strain/Indicator: TA100, Metabolic Activation: RAT, LIVER, MICROSOMES, CLOFIBRATE, Method: STANDARD PLATE): inactive; negative
- mutagenic call (Test System: AMES SALMONELLA TYPHIMURIUM, Strain/Indicator: TA100, Metabolic Activation: RAT, LIVER, MICROSOMES, DEXAMETHASONE, Method: STANDARD PLATE): inactive; negative
- mutagenic call (Test System: AMES SALMONELLA TYPHIMURIUM, Strain/Indicator: TA100, Metabolic Activation: RAT, LIVER, MICROSOMES, ISONIAZID, Method: STANDARD PLATE): inactive; negative
- mutagenic call (Test System: AMES SALMONELLA TYPHIMURIUM, Strain/Indicator: TA100, Metabolic Activation: RAT, LIVER, MICROSOMES, PHENOBARBITONE, Method: STANDARD PLATE): inactive; negative

SMILES: CC(=O)CC(=O)CCC(=O)O
- mutagenic call [1]: inactive; negative
- mutagenic call [3]: inactive; negative
- mutagenic call [4]: inactive; negative
- mutagenic call [5]: inactive; negative
- mutagenic call [6]: inactive; negative
- mutagenic call [7]: inactive; negative
- mutagenic call (Test System: AMES SALMONELLA TYPHIMURIUM, Strain/Indicator: TA1535, Metabolic Activation: HAMSTER, LIVER, S-9, AROCLOR 1254, Method: STANDARD PLATE): inactive; negative
- mutagenic call (Test System: AMES SALMONELLA TYPHIMURIUM, Strain/Indicator: TA1535, Metabolic Activation: NONE, Method: STANDARD PLATE): inactive; negative
- mutagenic call (Test System: AMES SALMONELLA TYPHIMURIUM, Strain/Indicator: TA1535, Metabolic Activation: RAT, LIVER, S-9, AROCLOR 1254, Method: STANDARD PLATE): inactive; negative
- mutagenic call (Test System: AMES SALMONELLA TYPHIMURIUM, Strain/Indicator: TA1537, Metabolic Activation: HAMSTER, LIVER, S-9, AROCLOR 1254, Method: STANDARD PLATE): inactive; negative
- mutagenic call [8]: inactive; negative
- mutagenic call (Test System: AMES SALMONELLA TYPHIMURIUM, Strain/Indicator: TA1537, Metabolic Activation: RAT, LIVER, S-9, AROCLOR 1254, Method: STANDARD PLATE): inactive; negative
- mutagenic call [9]: inactive; negative
- mutagenic call [10]: inactive; negative
- mutagenic call [11]: inactive; negative
- mutagenic call (Test System: CHINESE HAMSTER V-79, Strain/Indicator: V-79 (HGPRT)/6-THIOGUANINE, Metabolic Activation: NONE): inactive; negative
- mutagenic call [15]: inactive; negative. reevaluation of results: negative
- mutagenic call [16]: active; positive. reevaluation of results: positive

SMILES: c1ccc2c(c1)cc1sc3cccc4ccc2c1c43
- mutagenic call [3]: inactive; negative
- mutagenic call (Test System: AMES SALMONELLA TYPHIMURIUM, Strain/Indicator: TA98, Metabolic Activation: RAT, LIVER, S-9, AROCLOR 1254 (10%), Method: STANDARD PLATE): active; positive
- mutagenic call [6]: inactive; negative
- mutagenic call (Test System: AMES SALMONELLA TYPHIMURIUM, Strain/Indicator: TA100, Metabolic Activation: RAT, LIVER, S-9, AROCLOR 1254 (10%), Method: STANDARD PLATE): inactive; negative

SMILES: CC(Br)(CO)CBr (stereo not drawn)
- mutagenic call [6]: inactive; negative

SMILES: COc1ccc2c(c1)-c1nn(CCCN(C)C)c3ccc([N+](=O)[O-])c(c13)N2
- mutagenic call (Test System: Mouse lymphoma, Strain/Indicator: L5178Y (tk+/tk-), Metabolic Activation: None, Method: Suspension/plate): active; positive
- mutagenic call (Test System: Mouse lymphoma, Strain/Indicator: L5178Y (tk+/tk-), Metabolic Activation: Rat, Liver, S-9, Aroclor 1254, Method: Suspension/plate): active; positive

SMILES: O=[N+]([O-])c1ccc2c(c1)Cc1cc([N+](=O)[O-])ccc1-2
- mutagenic call (Test System: AMES SALMONELLA TYPHIMURIUM, Strain/Indicator: TA98(1,8-DNP6), Metabolic Activation: NONE, Method: STANDARD PLATE): active; positive
- mutagenic call (Test System: AMES SALMONELLA TYPHIMURIUM, Strain/Indicator: TA98(NR), Metabolic Activation: NONE, Method: STANDARD PLATE): active; positive
- mutagenic call (Test System: AMES SALMONELLA TYPHIMURIUM, Strain/Indicator: TA98, Metabolic Activation: NONE, Method: PREINCUBATION): active; positive
- mutagenic call [3]: active; positive
- mutagenic call [4]: active; positive
- mutagenic call (Test System: AMES SALMONELLA TYPHIMURIUM, Strain/Indicator: TA98, Metabolic Activation: RAT, LIVER, S-9, PCB (10%), Method: PREINCUBATION): active; positive
- mutagenic call [6]: active; positive
- mutagenic call [7]: active; positive

SMILES: C=C1C(=O)O[C@@H]2C[C@]3(C)[C@@H](CCC(C)=O)[C@@H]3C[C@H]12
- mutagenic call (Test System: AMES SALMONELLA TYPHIMURIUM, Strain/Indicator: TA104, Metabolic Activation: NONE, Method: STANDARD PLATE): inactive; negative
- mutagenic call (Test System: AMES SALMONELLA TYPHIMURIUM, Strain/Indicator: TA104, Metabolic Activation: RAT, LIVER, S-9, Method: STANDARD PLATE): inactive; negative

Reference: PubChem BioAssay AID1259407 (Chemical Carcinogenesis Research Information System (CCRIS), 2018)
